Results from PubChem BioAssay AID248 (DTP/NCI, 2004).
Several values for one entry are separate records, joined by “and”; a condition that tells them apart may be missing. Equal values may be shown once. Toxic doses and inconclusive results are not listed. Cut-off read from the data, not from the text of the source: active = T/C of 150% or more; inactive = T/C below 125%.

System: L1210 leukemia ip in BDF1 mice, survival T/C
Test: NCI In Vivo Anticancer Drug Screen. Data for tumor model L1210 Leukemia (intraperitoneal) in B6D2F1 (BDF1) mice
Conditions: endpoint: mean survival time, higher = longer survival
In short: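 Each compound was tested against a transplantable tumor grown in mice. The endpoint was survival, with treated animals benchmarked against vehicle controls as a simple ratio.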

[1] = dose: 100.0 mg/kg/injection, schedule: Q04DX002 (ip), vehicle: saline with Tween-80
[2] = dose: 200.0 mg/kg/injection, schedule: Q04DX002 (ip), vehicle: saline with Tween-80
[3] = dose: 100.0 mg/kg/injection, schedule: Q01DX009 (ip), vehicle: saline
[4] = dose: 100.0 mg/kg/injection, schedule: Q04DX003 (ip), vehicle: saline
[5] = dose: 200.0 mg/kg/injection, schedule: Q01DX009 (ip), vehicle: saline
[6] = dose: 50.0 mg/kg/injection, schedule: Q01DX001 (ip), vehicle: carboxymethylcellulose (CMC)
[7] = dose: 50.0 mg/kg/injection, schedule: Q01DX001 (ip), vehicle: saline
[8] = dose: 100.0 mg/kg/injection, schedule: Q01DX001 (ip), vehicle: saline
[9] = dose: 100.0 mg/kg/injection, schedule: Q04DX003 (ip), vehicle: saline with Tween-80
[10] = dose: 200.0 mg/kg/injection, schedule: Q04DX003 (ip), vehicle: saline with Tween-80
[11] = dose: 400.0 mg/kg/injection, schedule: Q04DX003 (ip), vehicle: saline with Tween-80
[12] = dose: 50.0 mg/kg/injection, schedule: Q01DX001 (ip), vehicle: Klucel (hydroxypropylcellulose) (HPC)
[13] = dose: 100.0 mg/kg/injection, schedule: Q01DX001 (ip), vehicle: Klucel (hydroxypropylcellulose) (HPC)
[14] = dose: 200.0 mg/kg/injection, schedule: Q01DX001 (ip), vehicle: Klucel (hydroxypropylcellulose) (HPC)
[15] = dose: 400.0 mg/kg/injection, schedule: Q01DX001 (ip), vehicle: Klucel (hydroxypropylcellulose) (HPC)
[16] = dose: 12.5 mg/kg/injection, schedule: Q01DX009 (ip), vehicle: saline with Tween-80
[17] = dose: 25.0 mg/kg/injection, schedule: Q01DX009 (ip), vehicle: saline with Tween-80
[18] = dose: 100.0 mg/kg/injection, schedule: Q01DX009 (ip), vehicle: Klucel (hydroxypropylcellulose) (HPC)
[19] = dose: 400.0 mg/kg/injection, schedule: Q04DX002 (ip), vehicle: saline with Tween-80

Measured: T/C

N#C/C(=C\C1CCCCC1Cl)C1CCC([N+](=O)[O-])CC1 (configuration not stated)
inactive: dose: 50.0 mg/kg/injection, schedule: Q04DX002 (ip), vehicle: saline with Tween-80 91 % of control | [1] 91 % of control | [2] 97 % of control

N#Cc1cnc2nc(N)nc(N)c2c1
inactive: dose: 50.0 mg/kg/injection, schedule: Q01DX009 (ip), vehicle: saline 95 % of control and 105 % of control | [3] 95 % of control and 91 % of control | [4] 95 % of control | [5] 95 % of control and 98 % of control and 90 % of control | dose: 200.0 mg/kg/injection, schedule: Q04DX003 (ip), vehicle: saline 106 % of control

CCOC(=O)C(Cc1c[nH]c2ccccc12)NC(C)=O (configuration not stated)
inactive: dose: 100.0 mg/kg/injection, schedule: Q04DX002 (ip), vehicle: Klucel (hydroxypropylcellulose) (HPC) 106 % of control | dose: 200.0 mg/kg/injection, schedule: Q04DX002 (ip), vehicle: Klucel (hydroxypropylcellulose) (HPC) 100 % of control | dose: 400.0 mg/kg/injection, schedule: Q04DX002 (ip), vehicle: Klucel (hydroxypropylcellulose) (HPC) 95 % of control

CC(C)CCO[Si](C)(C)CCl
inactive: [6] 103 % of control | dose: 100.0 mg/kg/injection, schedule: Q01DX001 (ip), vehicle: carboxymethylcellulose (CMC) 103 % of control | dose: 200.0 mg/kg/injection, schedule: Q01DX001 (ip), vehicle: carboxymethylcellulose (CMC) 97 % of control | dose: 400.0 mg/kg/injection, schedule: Q01DX001 (ip), vehicle: carboxymethylcellulose (CMC) 103 % of control

CCOC(=O)C(C#N)NC(C)=O (configuration not stated)
inactive: dose: 100.0 mg/kg/injection, schedule: Q04DX003 (ip), vehicle: Klucel (hydroxypropylcellulose) (HPC) 102 % of control | dose: 200.0 mg/kg/injection, schedule: Q04DX003 (ip), vehicle: Klucel (hydroxypropylcellulose) (HPC) 102 % of control | dose: 400.0 mg/kg/injection, schedule: Q04DX003 (ip), vehicle: Klucel (hydroxypropylcellulose) (HPC) 111 % of control

CC1CN1S(=O)(=O)N1CC1C (configuration not stated)
inactive: [6] 111 % of control

COS(=O)(=O)CCCCCC[N+](C)(C)C
inactive: [7] 93 % of control | [8] 102 % of control | dose: 200.0 mg/kg/injection, schedule: Q01DX001 (ip), vehicle: saline 98 % of control

COc1cc(Br)c(CC2=[N+](C)CCc3cc(OC)c(OCc4ccccc4)cc32)cc1OC
inactive: [9] 98 % of control | [10] 101 % of control | [11] 101 % of control

Cn1c(=O)c2c(nc(OC3CCC=CO3)n2C)n(C)c1=O (configuration not stated)
inactive: dose: 50.0 mg/kg/injection, schedule: Q01DX001 (ip), vehicle: other 98 % of control | dose: 100.0 mg/kg/injection, schedule: Q01DX001 (ip), vehicle: other 95 % of control | dose: 200.0 mg/kg/injection, schedule: Q01DX001 (ip), vehicle: other 88 % of control

O=C(CNCc1ccccc1)c1ccc(Cl)cc1
inactive: [12] 93 % of control | [13] 96 % of control | [14] 93 % of control | [15] 93 % of control

Brc1ccc(/C(=N/Nc2ccccc2)Oc2ccccc2)cc1
inactive: [9] 94 % of control | [10] 94 % of control | [11] 102 % of control

CCCCCCCCCCCCCCCCC
inactive: dose: 100.0 mg/kg/injection, schedule: Q01DX001 (ip), vehicle: saline with Tween-80 113 % of control | dose: 200.0 mg/kg/injection, schedule: Q01DX001 (ip), vehicle: saline with Tween-80 108 % of control | dose: 400.0 mg/kg/injection, schedule: Q01DX001 (ip), vehicle: saline with Tween-80 97 % of control

O=C1C(=O)c2ccccc2C(O)=C1C(C1=C(O)c2ccccc2C(=O)C1=O)c1ccc(Cl)c(Cl)c1
inactive: dose: 75.0 mg/kg/injection, schedule: Q01DX001 (ip), vehicle: carboxymethylcellulose (CMC) 94 % of control

Nc1nc(N)c(-c2ccc(Cl)c(Cl)c2)c(C[P+](c2ccccc2)(c2ccccc2)c2ccccc2)n1
inactive: dose: 75.0 mg/kg/injection, schedule: Q01DX001 (ip), vehicle: saline 97 % of control

Cc1ccc(NC(=O)c2ccc(C)c([N+](=O)[O-])c2)c(C)c1
inactive: dose: 100.0 mg/kg/injection, schedule: Q01DX009 (sc), vehicle: olive oil, sesame oil, peanut oil 86 % of control | dose: 100.0 mg/kg/injection, schedule: Q04DX003 (sc), vehicle: olive oil, sesame oil, peanut oil 100 % of control | dose: 200.0 mg/kg/injection, schedule: Q01DX009 (sc), vehicle: olive oil, sesame oil, peanut oil 94 % of control | dose: 200.0 mg/kg/injection, schedule: Q04DX003 (sc), vehicle: olive oil, sesame oil, peanut oil 105 % of control | dose: 400.0 mg/kg/injection, schedule: Q01DX009 (sc), vehicle: olive oil, sesame oil, peanut oil 89 % of control | dose: 400.0 mg/kg/injection, schedule: Q04DX003 (sc), vehicle: olive oil, sesame oil, peanut oil 97 % of control

N#CC(C#N)C(=O)c1ccccc1
inactive: [16] 100 % of control | [17] 100 % of control | dose: 50.0 mg/kg/injection, schedule: Q01DX009 (ip), vehicle: saline with Tween-80 96 % of control | [9] 95 % of control | [10] 95 % of control | [11] 89 % of control

O=S(=O)(O)Cc1c(O)ccc2ccccc12
inactive: dose: 25.0 mg/kg/injection, schedule: Q01DX009 (ip), vehicle: Klucel (hydroxypropylcellulose) (HPC) 96 % of control | dose: 50.0 mg/kg/injection, schedule: Q01DX009 (ip), vehicle: Klucel (hydroxypropylcellulose) (HPC) 104 % of control | [18] 96 % of control | [1] 100 % of control | [2] 100 % of control | [19] 103 % of control

C=C(C)Cc1c(C)c(Cl)cc(Cl)c1O
inactive: [7] 103 % of control | [8] 103 % of control

N#CSC/C(Br)=C/Br
inactive: dose: 6.25 mg/kg/injection, schedule: Q01DX009 (ip), vehicle: saline with Tween-80 99 % of control | [16] 96 % of control | [17] 96 % of control

O=C(O)c1ccc(Br)o1
inactive: [1] 104 % of control | [2] 97 % of control | [19] 95 % of control

CCC1C2Cc3ccc(O)cc3C1(CC)CCN2C (configuration not stated)
inactive: [7] 101 % of control | [8] 101 % of control

O=C(CCCOc1ccccc1)NCc1ccccc1[N+](=O)[O-]
inactive: [13] 92 % of control | [14] 96 % of control | [15] 102 % of control

CCN(C(=O)c1ccc([N+](=O)[O-])cc1)C(c1ccco1)P(=O)(c1ccccc1)c1ccccc1 (configuration not stated)
inactive: [1] 87 % of control | [2] 87 % of control | [19] 93 % of control

COc1cc([N+](=O)[O-])cc(OC)c1OC
inactive: [13] 95 % of control | [14] 92 % of control | [15] 97 % of control

O=C(Nn1cn[nH]c1=S)Oc1ccccc1
inactive: [9] 103 % of control | [10] 103 % of control

N#Cc1cc(C(N)=O)c(N)nc1SCc1ccccc1
inactive: [12] 94 % of control | [13] 86 % of control | [14] 91 % of control

Cc1ccc(N=Nc2ccc(C)cc2NC(=O)Nc2ccccc2C(F)(F)F)cc1
inactive: [18] 92 % of control | dose: 200.0 mg/kg/injection, schedule: Q01DX009 (ip), vehicle: Klucel (hydroxypropylcellulose) (HPC) 90 % of control | dose: 400.0 mg/kg/injection, schedule: Q01DX009 (ip), vehicle: Klucel (hydroxypropylcellulose) (HPC) 90 % of control

CC(=O)Nc1ccc(S(=O)(=O)Nc2ccccc2C(F)(F)F)cc1
inactive: dose: 100.0 mg/kg/injection, schedule: Q01DX009 (ip), vehicle: saline with Tween-80 93 % of control | dose: 200.0 mg/kg/injection, schedule: Q01DX009 (ip), vehicle: saline with Tween-80 104 % of control | dose: 400.0 mg/kg/injection, schedule: Q01DX009 (ip), vehicle: saline with Tween-80 91 % of control

BrC1CCC2C(CCC(Br)C23OCCO3)C12OCCO2 (configuration not stated)
inactive: [3] 91 % of control | [4] 89 % of control | [5] 98 % of control | dose: 400.0 mg/kg/injection, schedule: Q01DX009 (ip), vehicle: saline 91 % of control | dose: 400.0 mg/kg/injection, schedule: Q04DX003 (ip), vehicle: saline 108 % of control

CC(Cl)[N+](=O)[O-] (configuration not stated)
inactive: [1] 94 % of control | [2] 94 % of control | [19] 98 % of control

COc1ccc2c(c1)CCC1C2CCC2(C)C1CCC2(C)N(C)C (configuration not stated)
inactive: dose: 50.0 mg/kg/injection, schedule: Q01DX001 (sc), vehicle: steriod suspending solution 104 % of control
